Test results from ChEMBL document CHEMBL4043237, “Heliotropiumides A and B, new phenolamides with N-carbamoyl putrescine moiety from Heliotropium foertherianum collected in Hawaii and their biological activities” (Bioorg Med Chem Lett, 2017).
pIC50: −log10 of the molar value. The source made the active and inactive calls. The rule behind the calls is not given here.

How the values were obtained:
Escherichia coli = test: Antibacterial activity against Escherichia coli; type: functional
Sus scrofa = organism: Sus scrofa; test: Displacement of [3H]MLA from alpha7* nAChR in pig adrenal membranes; type: cell membranes
Aspergillus niger = test: Antifungal activity against Aspergillus niger; type: functional
Fusarium graminearum = test: Antifungal activity against Fusarium graminearum; type: functional
[1] = Inhibition of TNFalpha-induced NFkappaB activation in HEK293 cells after 6 hrs by luciferase reporter gene assay; type: cell-based; details: Homo sapiens, HEK293, 6 h
[2] = biological target: Neuronal acetylcholine receptor; alpha3/beta4 (Rattus norvegicus) (UniProt P04757+P12392); test: Displacement of [3H]epibatidine from alpha3beta4* nAChR in Sprague-Dawley rat forebrain membranes; details: Membrane
Tetronarce californica = test: Displacement of [3H]epibatidine from (alpha1)2beta1gammadelta nAChR in Torpedo californica electroplax membranes
A2780 = test: Cytotoxicity against human A2780 cells assessed as reduction in cell viability at 20 ug/ml after 72 hrs by CyQuant dye based assay; type: functional
Staphylococcus aureus = test: Antibacterial activity against Staphylococcus aureus; type: functional
Homo sapiens = organism: Homo sapiens; test: Inhibition of TNFalpha-induced NFkappaB activation in HEK293 cells at 40 uM after 6 hrs by luciferase reporter gene assay relative to control; type: cell-based
Paecilomyces lilacinus = test: Antifungal activity against Paecilomyces lilacinus; type: functional; details: Purpureocillium lilacinum
Bacillus subtilis = test: Antibacterial activity against Bacillus subtilis; type: functional
Penicillium chrysogenum = test: Antifungal activity against Penicillium chrysogenum; type: functional
Pseudomonas aeruginosa = test: Antibacterial activity against Pseudomonas aeruginosa; type: functional
[3] = biological target: Neuronal acetylcholine receptor; alpha4/beta2 (Rattus norvegicus) (UniProt P09483+P12390); test: Displacement of [3H]epibatidine from alpha4beta2* nAChR in Sprague-Dawley rat forebrain membranes; details: Membrane

Structure (SMILES) | Activity (Escherichia coli) | inhibition (Sus scrofa) | Activity (Aspergillus niger) | Activity (Fusarium graminearum) | pIC50 [1] | inhibition [2] | inhibition (Tetronarce californica) | Activity (A2780) | Activity (Staphylococcus aureus) | inhibition (Homo sapiens) | Activity (Paecilomyces lilacinus) | Activity (Bacillus subtilis) | Activity (Penicillium chrysogenum) | Activity (Pseudomonas aeruginosa) | inhibition [3]
COc1cc(/C=C/C(=O)NCCCCNC(N)=O)ccc1O | inactive | inactive | inactive | inactive | 4.44 | inactive | inactive | inactive | inactive | > 60% | inactive | inactive | inactive | inactive | inactive
COc1cc([C@H]2Oc3c(OC)cc(/C=C/C(=O)NCCCCNC(N)=O)cc3[C@@H]2CO)ccc1O | inactive | inactive | inactive | inactive | – | inactive | inactive | inactive | inactive | inactive | inactive | inactive | inactive | inactive | inactive
